Measured values taken from patent publication US10294237B2, “Bicyclic heterocyclic amide derivative” (Sumitomo Dainippon Pharma Co., Ltd., priority 2015, dated 2019).

How the values were obtained:
[1] = tested on: HCT-116 cells; experiment: Test for inhibiting sphere-forming ability of cancer cells; format: cell-based; conditions: HCT-116 spheres, non-adherent, serum-free, 4 days, CellTiter-Glo, read-out: IC50 (Sphere IC50 value; concentration for 50% inhibition of cell proliferation)
Procedure: (§1) The reliable methods established for measuring the self-renewal ability of cells which is one of the CSC's properties include a method for measuring the sphere-forming ability of cancer cells in non-adherent condition in the absence of serum (Cancer Res 65, 5506-5511 (2005)). HCT-116 cells were available from the American Type Culture Collection (ATCC). HCT-116 cells were cultured at 37° C. and 5% CO2 using the McCoy's 5a medium containing 10% fetal bovine serum (FBS) and 1% penicillin/streptomycin. HCT-116 cells were seeded in a 384 Well Black Clear Bottom Ultra-Low Attachment Microplate (Corning Cat. No. 3827) in an amount of 350-800 cells/well using the DMEM/F12 medium containing 2% B27 supplement (GIBCO), 20 ng/mL epidermal growth factor (EGF) (peprotech), 10 ng/mL basic fibroblast growth factor (bFGF) (peprotech), 5 μg/mL insulin (Sigma), and 1% penicillin/streptomycin. The test compounds were added into each well to adjust the final concentration of DMSO to 0.1%, and the cells were cultured for 4 days. The number of viable cells in each well was then measured with CellTiter-Glo® Luminescent Cell Viability Assay (Promega) to calculate the concentration of each test compound for 50% inhibition of cell proliferation (Sphere IC50 value; μmol/L).
The experiment of Test Example 1 was performed for the compounds of each Example. The concentrations of each test compound for 50% inhibition of cell profeliration (Sphere IC50 value; μmol/L) are shown in the following Table.

[2] = tested on: HCT-116 cells; experiment: Test for inhibiting sphere-forming ability of cancer cells (in the presence of BSA); format: cell-based; conditions: HCT-116 spheres, non-adherent, 5% BSA, 4 days, CellTiter-Glo, read-out: IC50 (Sphere IC50 value; concentration for 50% inhibition of cell proliferation)
Procedure: as §1, with “HCT-116” for “The reliable methods established for measuring the self-renewal ability of cells which is one of the CSC's properties include a method for measuring the sphere-forming ability of cancer cells in non-adherent condition in the absence of serum (Cancer Res 65, 5506-5511 (2005)). HCT-116”, “(Sigma), 5% bovine serum albumin (BSA),” for “(Sigma),”
The experiment of Test Example 2 was performed for the compounds of each Example. The concentrations of each test compound for 50% inhibition of cell profeliration (Sphere IC50 value; μmol/L) are shown in the following Table.

SMILES	IC50 [1] [nM]	IC50 [2] [nM]	IC50 ([1]; Homo sapiens, 96 h) [nM]	IC50 ([2]; Homo sapiens, HCT-116, 96 h) [nM]
O=C(Nc1cn(CC2CCCCC2)cn1)c1cnc2c(c1)CCNC2 [Example 55]	80	50	–	–
COc1cc(Cn2cnc(NC(=O)c3ccc4c(c3)CCNC4)c2)cc(OC)c1 [Example 94]	–	–	6990	6110
O=C(Nc1cn(Cc2cc(F)cc(C(F)(F)F)c2)cn1)c1ccc2c(c1)CCNC2 [Example 99, N-{1-[3-fluoro-5-(trifluoromethyl)benzyl]-1H-imidazol-4-yl}-1,2,3,4-tetrahydroisoquinoline-6-carboxamide]	–	–	60	60
COc1cccc(Cn2cnc(NC(=O)c3cnc4c(c3)CCNC4)c2)c1 [Example 58]	180	80	–	–
O=C(Nc1cn(Cc2ccc(Cl)c(C(F)(F)F)c2)cn1)c1ccc2c(c1)CCNC2 [Example 93, N-{1-[4-chloro-3-(trifluoromethyl)benzyl]-1H-imidazol-4-yl}-1,2,3,4-tetrahydroisoquinoline-6-carboxamide]	–	–	< 10	70
O=C(Nc1cn(Cc2cccc(OC(F)(F)F)c2)cn1)c1cnc2c(c1)CCNC2 [Example 49, N-{1-[3-(trifluoromethoxy)benzyl]-1H-imidazol-4-yl}-5,6,7,8-tetrahydro-1,7-naphthyridine-3-carboxamide]	–	–	70	70
Cc1cccc(Cn2cnc(NC(=O)c3cnc4c(c3)CCNC4)c2)c1 [Example 121]	80	70	–	–
Cc1ccc(Cn2cnc(NC(=O)c3ccc4c(c3)CCNC4)c2)cc1C(F)(F)F [Example 97, N-{1-[4-methyl-3-(trifluoromethyl)benzyl]-1H-imidazol-4-yl}-1,2,3,4-tetrahydroisoquinoline-6-carboxamide]	–	–	70	590
COc1cc(Cn2cnc(NC(=O)c3ccc4c(c3)CCNC4)c2)cc(C(F)(F)F)c1 [Example 98]	–	–	500	510
CN(C)c1cccc(Cn2cnc(NC(=O)c3ccc4c(c3)CCNC4)c2)c1 [Example 105]	–	–	5900	5120
O=C(Nc1cn(Cc2cccc(F)c2)cn1)c1ccc2c(c1)CCNC2 [Example 77]	620	600	–	–
O=C(Nc1cn(Cc2ccc(Cl)c(F)c2)cn1)c1ccc2c(c1)CCNC2 [Example 90, N-[1-(4-chloro-3-fluorobenzyl)-1H-imidazol-4-yl]-1,2,3,4-tetrahydroisoquinoline-6-carboxamide]	–	–	70	100
O=C(Nc1cn(CCOc2ccccc2)cn1)c1cnc2c(c1)CCNC2 [Example 116]	5990	1970	–	–
O=C(Nc1cn(Cc2ccccc2)cn1)c1cnc2c(c1)CCNC2 [Example 59]	610	370	–	–
O=C(Nc1cn(Cc2cccc(C(F)(F)F)c2)cn1)c1cc2c(cn1)CNCC2 [Example 9, N-{1-[3-(trifluoromethyl)benzyl]-1H-imidazol-4-yl}-5,6,7,8-tetrahydro-2,7-naphthyridine-3-carboxamide]	–	–	70	500
Cc1ccc(Cn2cnc(NC(=O)c3cnc4c(c3)CCNC4)c2)cc1 [Example 68]	560	650	–	–
Cc1cccc(Cn2cnc(NC(=O)c3ccc4c(c3)CCNC4)c2)c1 [Example 80]	620	600	–	–
O=C(Nc1cn(Cc2cccc(C(F)(F)F)c2)cn1)c1ccc2c(c1)CNCC2 [Example 18]	–	–	670	700
O=C(Nc1ccc2c(c1)CCNC2)c1cn(Cc2cc(F)c(F)c(F)c2)cn1 [Example 4, N-(1,2,3,4-tetrahydroisoquinolin-6-yl)-1-(3,4,5-trifluorobenzyl)-1H-imidazole-4-carboxamide]	–	–	660	560
O=C(/C=C/c1ccc2c(c1)OCCO2)Nc1cn(Cc2cccc(Cl)c2)cn1 [Example 39]	–	–	910	790
O=C1CCc2cc(C(=O)Nc3cn(Cc4cccc(C(F)(F)F)c4)cn3)ccc2C1 [Example 110, 6-Oxo-N-{1-[3-(trifluoromethyl)benzyl]-1H-imidazol-4-yl}-5,6,7,8-tetrahydronaphthalene-2-carboxamide]	–	–	680	580

SMILES	IC50 [1] [nM]	IC50 [2] [nM]	IC50 ([1]; Homo sapiens, 96 h) [nM]	IC50 ([2]; Homo sapiens, HCT-116, 96 h) [nM]
O=C1Nc2cc(C(=O)Nc3cn(Cc4cccc(C(F)(F)F)c4)cn3)cnc2CO1 [Example 24]	–	–	520	670
O=C(Nc1cn(Cc2cccc(F)c2)cn1)c1cnc2c(c1)CCNC2 [Example 120]	80	70	–	–
O=C(Nc1cn(Cc2cc(F)cc(Cl)c2)cn1)c1ccc2c(c1)CCNC2 [Example 91, N-[1-(3-chloro-5-fluorobenzyl)-1H-imidazol-4-yl]-1,2,3,4-tetrahydroisoquinoline-6-carboxamide]	–	–	70	80
O=C(Nc1cn(Cc2cc(Cl)cc(OC(F)(F)F)c2)cn1)c1ccc2c(c1)CCNC2 [Example 100, N-{1-[3-chloro-5-(trifluoromethoxy)benzyl]-1H-imidazol-4-yl}-1,2,3,4-tetrahydroisoquinoline-6-carboxamide]	–	–	60	70
O=C(Nc1cn(Cc2cccc(Cl)c2)cn1)c1cnc2c(c1)CCNC2 [Example 43]	–	–	720	540
O=C(Nc1cn(Cc2ccc3c(c2)OCO3)cn1)c1cnc2c(c1)CCNC2 [Example 119]	730	630	–	–
O=C(Nc1cc2c(cn1)CNCC2)c1cn(Cc2ccc(F)c(F)c2)cn1 [Example 35, 1-(3,4-difluorobenzyl)-N-(5,6,7,8-tetrahydro-2,7-naphthyridin-3-yl)-1H-imidazole-4-carboxamide]	–	–	80	50
O=C(Nc1cn(Cc2ccccc2F)cn1)c1cnc2c(c1)CCNC2 [Example 46]	750	440	–	–
Cc1ccccc1Cn1cnc(NC(=O)c2ccc3c(c2)CCNC3)c1 [Example 76]	680	590	–	–
O=C(Nc1cn(Cc2cccc(C(F)(F)F)c2)cn1)c1cc2c(s1)CNCC2 [Example 17]	–	–	620	720
O=C(Nc1cn(Cc2ccc(C(F)(F)F)cc2)cn1)c1cnc2c(c1)CCNC2 [Example 64, N-{1-[4-(trifluoromethyl)benzyl]-1H-imidazol-4-yl}-5,6,7,8-tetrahydro-1,7-naphthyridine-3-carboxamide]	–	–	90	170
O=C(Nc1cn(Cc2cccc(Oc3ccccc3)c2)cn1)c1cnc2c(c1)CCNC2 [Example 50, N-[1-(3-phenoxybenzyl)-1H-imidazol-4-yl]-5,6,7,8-tetrahydro-1,7-naphthyridine-3-carboxamide]	–	–	50	660
O=C(Nc1cn(Cc2ccc(F)cc2)cn1)c1cnc2c(c1)CCNC2 [Example 61]	370	60	–	–
O=C(Nc1cn(Cc2cccc(C(F)(F)F)c2)cn1)c1ccc2c(c1)CCC(O)C2 (stereo not shown) [Example 111, 6-Hydroxy-N-{1-[3-(trifluoromethyl)benzyl]-1H-imidazol-4-yl}-5,6,7,8-tetrahydronaphthalene-2-carboxamide]	–	–	690	980
O=C(Nc1cc2c(cc1F)CNCC2)c1cn(Cc2ccc(F)c(F)c2)cn1 [Example 2]	–	–	660	490
Cc1c(NC(=O)c2ccc3c(c2)CCNC3)ncn1Cc1cccc(C(F)(F)F)c1 [Example 21]	–	–	6200	6190
O=C(Nc1cn(Cc2ccccc2C(F)(F)F)cn1)c1ccc2c(c1)CCNC2 [Example 82]	3790	4900	–	–
O=C(Nc1cn(Cc2ccc3ccccc3c2)cn1)c1ccc2c(c1)CCNC2 [Example 103]	–	–	4180	6100
O=C(Nc1cn(Cc2cccc(Cl)c2)cn1)c1ccc2c(c1)CCNC2 [Example 45]	–	–	820	660
O=C(Nc1cn(Cc2cccc(C(F)(F)F)c2)cn1)c1cc2c(s1)CCNC2 [Example 16]	–	–	5850	6000
